# Assay results taken from patent US9725442B2, “Heterocyclic derivative having PGD2 receptor antagonist activity” (Shionogi & Co., Ltd., priority 2011, dated 2017).
# Where two headings read alike, the source gives them in different places.
# Key:
# [1] = biological target: Human DP1 receptor (Homo sapiens (Human), UniProt Q13258); test: Human DP1 inhibitory activity in DP1-expressing cell (PGD2-induced cAMP); format: cell-based; settings: category of cAMP IC50, human DP1 receptor expressing Jurkut cell
# Description: Compounds were categorized as AA (cAMP is less than 100 nM) and A (cAMP is more than 100 nM and less than 5000 nM) as shown in Table 99 and 100.
# [2] = biological target: CRTH2 (Homo sapiens (Human), UniProt Q9Y5Y4); test: CRTH2 receptor binding inhibitory activity ([3H]-PGD2 displacement, membranes of CRTH2-expressing K562 cell)
# Description: Cell membrane was prepared from CRTH2-expressing K562 cell. The cell membrane (20 μg/well) was mixed with reaction buffer (50 mM Tris/HCl, pH 7.4, 10 mM MgCl2). Then, [^3H]-PGD2 was added to the mixture and incubated for 60 min at room temperature. […] Then, the mixture was filtrated with glass paper immediately. The filter paper was washed several times and radio activity on the filter was measured. Specific binding was defined as difference between total and non-specific binding (radio activity with 10 μM PGD2). Ki values for each compound were calculated from displacement curve.
# [3] = CRTH2 receptor binding, [3H]-PGD2 displacement, membrane of CRTH2-expressing K562 cell, categorized AAAA/AAA, read-out: Ki
# [4] = [3H]-PGD2 displacement, membrane of CRTH2-expressing K562 cell, read-out: Ki
# CRTH2, sequence (Q9Y5Y4 whole entry): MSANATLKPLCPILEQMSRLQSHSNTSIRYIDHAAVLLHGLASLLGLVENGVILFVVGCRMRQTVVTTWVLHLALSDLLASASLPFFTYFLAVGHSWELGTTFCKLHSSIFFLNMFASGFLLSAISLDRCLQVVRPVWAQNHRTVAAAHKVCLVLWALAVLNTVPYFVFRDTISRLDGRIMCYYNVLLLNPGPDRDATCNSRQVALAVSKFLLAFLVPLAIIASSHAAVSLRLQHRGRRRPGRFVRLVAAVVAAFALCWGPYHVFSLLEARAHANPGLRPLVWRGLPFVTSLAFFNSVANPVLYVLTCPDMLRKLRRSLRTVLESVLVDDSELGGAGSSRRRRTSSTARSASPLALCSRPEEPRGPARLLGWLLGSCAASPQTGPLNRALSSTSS
# Human DP1 receptor, sequence (Q13258 whole entry): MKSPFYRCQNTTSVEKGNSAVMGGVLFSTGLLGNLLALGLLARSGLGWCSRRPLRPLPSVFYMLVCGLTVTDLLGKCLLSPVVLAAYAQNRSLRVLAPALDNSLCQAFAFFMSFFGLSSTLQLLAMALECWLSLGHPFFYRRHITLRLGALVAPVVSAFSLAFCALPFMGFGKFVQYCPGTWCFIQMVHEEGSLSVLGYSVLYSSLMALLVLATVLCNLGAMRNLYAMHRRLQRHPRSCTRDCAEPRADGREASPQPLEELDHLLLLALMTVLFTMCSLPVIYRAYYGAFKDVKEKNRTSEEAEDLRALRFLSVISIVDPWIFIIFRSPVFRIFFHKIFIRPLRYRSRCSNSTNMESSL
Structure (SMILES),IC50 [1],"Ki [2, 3]","Ki [2, 4]",Ki [2]
CC(C)Oc1ccc(S(=O)(=O)N2C[C@H](n3nc(CC(=O)O)c4ccc(F)cc43)C[C@@H]2COc2ccccc2O)cc1 [Compound I-292],< 100 nM,100 to 5000 nM,–,–
COc1ccc(S(=O)(=O)N2C[C@@H](C)[C@@H](n3nc(CC(=O)O)c4ccccc43)C2)cn1 [Compound I-240],100 to 5000 nM,< 100 nM,–,–
CCOc1ccc(S(=O)(=O)N2C[C@@H](C)[C@@H](n3nc(CC(=O)O)c4ccc(C5CCCCC5)cc43)C2)cn1 [Compound I-224],100 to 5000 nM,< 100 nM,–,–
C=C[C@H]1C[C@@H](n2nc(CC(=O)O)c3ccc(F)cc32)CN1S(=O)(=O)c1ccc(OC(C)C)cc1 [Compound I-102],< 100 nM,< 100 nM,–,–
CCOc1ccc(S(=O)(=O)N2C[C@@H](C)[C@@H](n3nc(CC(=O)O)c4ccccc43)C2)c(CO)c1 [Compound I-277],< 100 nM,< 100 nM,–,–
CC(C)Oc1ccc(S(=O)(=O)N2C[C@H](n3nc(CC(=O)O)c4ccc(F)cc43)C[C@@H]2C)cc1 [Compound I-46],< 100 nM,< 100 nM,–,–
Cc1ccc2c(CC(=O)O)nn([C@@H]3C[C@H](C(F)F)N(S(=O)(=O)c4ccc(OC(C)C)cc4)C3)c2c1 [Compound I-92],< 100 nM,100 to 5000 nM,–,–
COc1ccc(S(=O)(=O)N2C[C@@H](C)[C@@H](n3nc(CC(=O)O)c4ccccc43)C2)cc1 [Compound I-241],< 100 nM,< 100 nM,–,–
CC(C)Oc1ccc(S(=O)(=O)N2C[C@H](n3nc(CC(=O)O)c4ccccc43)C[C@@H]2C(F)F)cc1 [Compound I-90],< 100 nM,100 to 5000 nM,–,–
C[C@@H]1CN(S(=O)(=O)c2ccc(Oc3ccccc3)nc2)C[C@@H]1n1nc(CC(=O)O)c2ccccc21 [Compound I-213],100 to 5000 nM,100 to 5000 nM,–,–
CCC[C@@H]1CN(S(=O)(=O)c2ccc(OC(C)C)cc2)C[C@@H]1n1nc(CC(=O)O)c2ccc(F)cc21 [Compound I-34],< 100 nM,< 100 nM,77 nM,–
CC(C)Oc1ccc(S(=O)(=O)N2C[C@H](n3nc(CC(=O)O)c4cccc(F)c43)C[C@@H]2C(F)F)cc1 [Compound I-133],100 to 5000 nM,100 to 5000 nM,–,–
CCOc1ccc(S(=O)(=O)N2C[C@@H](C)[C@@H](n3nc(CC(=O)O)c4ccc(C5CCCCC5)cc43)C2)cc1 [Compound I-223],100 to 5000 nM,< 100 nM,–,–
CCOc1ccc(S(=O)(=O)N2C[C@@H](C)[C@@H](n3nc(CC(=O)O)c4ccccc43)C2)cc1[N+](=O)[O-] [Compound I-188],100 to 5000 nM,100 to 5000 nM,–,–
CCOc1ccc(S(=O)(=O)N2C[C@@H](C)[C@@H](n3nc(CC(=O)O)c4ccccc43)C2)c(CNC(C)=O)c1 [Compound I-259],100 to 5000 nM,< 100 nM,–,–
CCOc1ccc(S(=O)(=O)N2C[C@@H](C)[C@@H](n3nc(CC(=O)O)c4ccc(F)cc43)C2)c(F)c1 [Compound I-147],< 100 nM,< 100 nM,–,–
Cc1ccc2c(c1)c(CC(=O)O)nn2[C@H]1CN(S(=O)(=O)c2ccc(OCF)cc2)C[C@H]1C [Compound I-268],< 100 nM,< 100 nM,–,–
CCOc1ccc(S(=O)(=O)N2C[C@@H](C)[C@@H](n3nc(CC(=O)O)c4ccc(F)cc43)C2)cn1 [Compound I-108],< 100 nM,< 100 nM,–,–
CC(C)Oc1ccc(S(=O)(=O)N2C[C@H](n3nc(CC(=O)O)c4ccc(F)cc43)C[C@H]2c2ccccc2)cc1 [Compound I-359],100 to 5000 nM,< 100 nM,–,–
Cc1nc2ccc(S(=O)(=O)N3C[C@@H](C)[C@@H](n4nc(CC(=O)O)c5ccccc54)C3)cc2s1 [Compound I-214],< 100 nM,100 to 5000 nM,–,–
C[C@@H]1C[C@@H](n2nc(CC(=O)O)c3ccc(F)cc32)CCN1S(=O)(=O)c1ccc(F)cc1 [Compound I-79],100 to 5000 nM,100 to 5000 nM,–,–
CCOc1ccc(S(=O)(=O)N2C[C@H](n3nc(CC(=O)O)c4ccccc43)[C@@H](C)[C@@H]2C(N)=O)cc1 [Compound I-298],100 to 5000 nM,100 to 5000 nM,–,–
CC(C)Oc1ccc(S(=O)(=O)N2C[C@H](n3nc(CC(=O)O)c4cc(Cl)ccc43)C[C@H]2C)cc1 [Compound I-15],100 to 5000 nM,< 100 nM,56 nM,–
Cc1c(CC(=O)O)c2ccccc2n1[C@@H]1C[C@H](C)N(S(=O)(=O)c2ccc(F)cc2)C1 [Compound I-317],100 to 5000 nM,100 to 5000 nM,–,–
CC(C)Oc1ccc(S(=O)(=O)N2C[C@H](n3nc(CC(=O)O)c4ccc(F)cc43)C[C@@H]2CF)cc1 [Compound I-13],< 100 nM,< 100 nM,–,–
CCOCCCOc1ccc(S(=O)(=O)N2C[C@@H](C)[C@@H](n3nc(CC(=O)O)c4ccccc43)C2)cc1 [Compound I-273],100 to 5000 nM,100 to 5000 nM,–,–

Structure (SMILES),IC50 [1],"Ki [2, 3]","Ki [2, 4]",Ki [2]
CC(C)Oc1ccc(S(=O)(=O)N2C[C@H](n3nc(CC(=O)O)c4ccc(F)cc43)C[C@@H]2Cn2ccnc2)cc1 [Compound I-20],100 to 5000 nM,< 100 nM,–,–
CCOc1ccc(S(=O)(=O)N2C[C@H](n3nc(CC(=O)O)c4ccccc43)C[C@@H]2CF)cc1 [Compound I-209],< 100 nM,100 to 5000 nM,–,–
CC(C)Oc1ccc(S(=O)(=O)N2C[C@@H](C)[C@@H](n3cc(CC(=O)O)c4cccnc43)C2)cc1 [Compound I-148],100 to 5000 nM,< 100 nM,5.6 nM,–
CCOc1ccc(S(=O)(=O)N2C[C@@H](C)[C@@H](n3nc(CC(=O)O)c4ccccc43)C2)c(/C=C/c2ccccc2)c1 [Compound I-185],100 to 5000 nM,< 100 nM,–,–
CC(C)Oc1ccc(S(=O)(=O)N2[C@@H]3CC[C@H]2C[C@@H](n2nc(CC(=O)O)c4ccc(F)cc42)C3)cc1 [Compound I-83],< 100 nM,–,–,100 to 5000 nM
Cc1ccc2c(CC(=O)O)nn([C@H]3CN(S(=O)(=O)c4ccc(OC(F)F)cc4)C[C@H]3C)c2c1 [Compound I-110],< 100 nM,< 100 nM,–,–
CCOc1ccc(S(=O)(=O)N2C[C@@H](C)[C@@H](n3nc(CC(=O)O)c4ccc(OC)cc43)C2)cc1 [Compound I-225],< 100 nM,< 100 nM,–,–
CC(C)Oc1ccc(S(=O)(=O)N2CC[C@H](n3nc(CC(=O)O)c4ccc(F)cc43)C[C@H]2CO)cc1 [Compound I-72],100 to 5000 nM,100 to 5000 nM,–,–
CC(C)Oc1ccc(S(=O)(=O)N2C[C@H](n3nc(CC(=O)O)c4ccc(Cl)cc43)C[C@@H]2C(F)F)cc1 [Compound I-93],< 100 nM,100 to 5000 nM,–,–
Cc1ccc2c(c1)c(CC(=O)O)nn2[C@H]1CN(S(=O)(=O)c2ccc(OC(C)C)cc2)C[C@H]1C [Compound I-203],< 100 nM,100 to 5000 nM,–,–
CCOc1ccc(S(=O)(=O)N2C[C@@H](C)[C@@H](n3nc(CC(=O)O)c4ccc(C5=CCCCC5)cc43)C2)cn1 [Compound I-221],< 100 nM,< 100 nM,–,–
CCOc1ccc(S(=O)(=O)N2C[C@@H](C)[C@@H](n3nc(CC(=O)O)c4ccc(C)cc43)C2)cc1 [Compound I-109],< 100 nM,< 100 nM,–,–
CC(C)Oc1ccc(S(=O)(=O)N2C[C@H](n3nc(CC(=O)O)c4ccc(F)cc43)C[C@H]2c2ccccn2)cc1 [Compound I-350],100 to 5000 nM,< 100 nM,–,–
CCc1ccc(S(=O)(=O)N2C[C@@H](C)[C@@H](n3nc(CC(=O)O)c4ccc(C)cc43)C2)cc1 [Compound I-232],< 100 nM,< 100 nM,–,–
CCOc1ccc(S(=O)(=O)N2C[C@H](C)[C@@H](n3nc(CC(=O)O)c4ccccc43)C2)cc1 [Compound I-198],100 to 5000 nM,< 100 nM,–,–
C=Cc1cc(OCC)ccc1S(=O)(=O)N1C[C@@H](C)[C@@H](n2nc(CC(=O)O)c3ccccc32)C1 [Compound I-276],< 100 nM,< 100 nM,–,–
CCOc1ccc(S(=O)(=O)N2C[C@@H](C)[C@@H](n3nc(CC(=O)O)c4ccc(OC)cc43)C2)cn1 [Compound I-226],100 to 5000 nM,< 100 nM,–,–
CC(C)Oc1ccc(S(=O)(=O)N2C[C@H](n3nc(CC(=O)O)c4ccc(F)cc43)C[C@]2(C)C#N)cc1 [Compound I-104],< 100 nM,< 100 nM,16 nM,–
COc1ccc(S(=O)(=O)N2C[C@@H](C)[C@@H](n3nc(CC(=O)O)c4ccc(F)cc43)C2)s1 [Compound I-179],< 100 nM,< 100 nM,–,–
CCOc1ccc(S(=O)(=O)N2C[C@@H](C)[C@@H](n3nc(C(F)(F)C(=O)O)c4ccccc43)C2)cc1 [Compound I-290],< 100 nM,100 to 5000 nM,–,–
CCCOC[C@H]1C[C@@H](n2nc(CC(=O)O)c3ccc(F)cc32)CN1S(=O)(=O)c1ccc(OC(C)C)cc1 [Compound I-327],100 to 5000 nM,100 to 5000 nM,–,–
CCOc1ccc(S(=O)(=O)N2C[C@@H](C)[C@@H](n3nc(CC(=O)O)c4ccccc43)C2)c(COC)c1 [Compound I-184],100 to 5000 nM,< 100 nM,–,–
CC(C)Oc1ccc(S(=O)(=O)N2C[C@H](n3nc(CC(=O)O)c4ccc(F)cc43)C[C@H]2C(=O)N(C)C)cc1 [Compound I-5],100 to 5000 nM,100 to 5000 nM,–,–
CCOc1ccc(S(=O)(=O)N2C[C@@H](C)[C@@H](n3nc(CC(=O)O)c4ccccc43)C2)c(OC)c1 [Compound I-261],100 to 5000 nM,100 to 5000 nM,–,–
CC(C)Oc1ccc(S(=O)(=O)N2C[C@@H](C)[C@@H](n3nc(CC(=O)O)c4ccccc43)C2)nc1 [Compound I-248],100 to 5000 nM,< 100 nM,–,–
COc1ccc(S(=O)(=O)N2C[C@@H](C)[C@@H](n3nc(CC(=O)O)c4ccc(C(F)(F)F)cc43)C2)cc1 [Compound I-128],< 100 nM,< 100 nM,–,–
